Data as given in patent publication US20240025919A1, “AZA-TETRACYCLIC OXAZEPINE COMPOUNDS AND USES THEREOF” (Genentech, Inc., priority 2022, published 2024).

How the values were obtained:
KRAS WT = KRAS WT (Homo sapiens (Human), UniProt P01116); experiment: KRAS WT Biochemical Assay, BODIPY-GDP Exchange TR-FRET (Example 502; 0.06 nM KRAS WT, 15 nM GDP, 300 nM SOS1, 120-minute incubation); settings: read-out: KRas HTRF IC50
How it was run: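 Biotin-tagged recombinant KRAS WT (0.06 nM) preloaded with 15 nM GDP and Tb-streptavidin, 10 min RT, then exchange started with 300 nM SOS1 plus 300 nM BODIPY-GDP in HEPES pH 7.5 buffer with MgCl2. TR-FRET 520/490 ratio read after 120 min; normalized to DMSO and full-inhibition control; IC50 from 4-parameter fit.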

KRAS G12D = KRAS G12D (Homo sapiens (Human), UniProt P01116, G12D); experiment: KRAS G12D LoEnz Biochemical Assay, BODIPY-GDP Exchange TR-FRET (SOS1-mediated nucleotide exchange); settings: read-out: KRas (G12D) GDP HTRF IC50
Chain of KRAS G12D (P01116-2 other isoform, or with tags, fused parts or gaps G12D): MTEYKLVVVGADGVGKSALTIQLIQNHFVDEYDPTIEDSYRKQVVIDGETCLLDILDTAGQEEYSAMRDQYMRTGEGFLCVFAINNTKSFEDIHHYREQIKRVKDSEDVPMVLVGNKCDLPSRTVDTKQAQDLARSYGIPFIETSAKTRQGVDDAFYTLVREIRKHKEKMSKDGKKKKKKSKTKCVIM

Chain of KRAS WT (P01116-2 other isoform, or with tags, fused parts or gaps): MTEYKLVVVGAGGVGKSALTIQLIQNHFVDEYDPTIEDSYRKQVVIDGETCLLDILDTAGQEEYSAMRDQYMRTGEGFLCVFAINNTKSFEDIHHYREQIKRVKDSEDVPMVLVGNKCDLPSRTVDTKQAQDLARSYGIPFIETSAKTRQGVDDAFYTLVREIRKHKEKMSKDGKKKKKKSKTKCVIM

Row | SMILES | IC50 (KRAS WT) | IC50 (KRAS G12D)
1 | C#Cc1c(F)ccc2cc(N)cc(-c3nc4c5c(nc(OC[C@]67CCN6CC(F)(F)C7)nc5c3F)N3C[C@H]5CC[C@H](N5)[C@H]3[C@H](C)O4)c12 [Compound 110, 4-((5S,5aS,6S,9R)-12-(((R)-3,3-Difluoro-1-azabicyclo[3.2.0]heptan-5-yl)methoxy)-1-fluoro-5-methyl-5a,6,7,8,9,10-hexahydro-5H-4-oxa-3,10a,11,13,14-pentaaza-6,9-methanonaphtho[1,8-ab]heptalen-2-yl)-5-ethynyl-6-fluoronaphthalen-2-amine] | 7.75 nM | 0.15 nM
2 | Cc1c(F)c(N)cc(-c2nc3c4c(nc(OC[C@@H]5CC[C@H]6COCCN65)nc4c2F)N2C[C@H]4CC[C@H](N4)[C@H]2[C@H](C)O3)c1Cl [Compound 111, 4-Chloro-2-fluoro-5-((5S,5aS,6S,9R)-1-fluoro-12-(((6S,8aS)-hexahydro-1H-pyrrolo[2,1-c][1,4]oxazin-6-yl)methoxy)-5-methyl-5a,6,7,8,9,10-hexahydro-5H-4-oxa-3,10a,11,13,14-pentaaza-6,9-methanonaphtho[1,8-ab]heptalen-2-yl)-3-methylaniline] | 108 nM | 0.31 nM
3 | Cc1nc(N)cc(-c2nc3c4c(nc(OC[C@@H]5CC[C@H]6COCCN65)nc4c2F)N2C[C@H]4CC[C@H](N4)[C@H]2[C@H](C)O3)c1C(F)(F)F [Compound 112, 4-((5S,5aS,6S,9R)-1-fluoro-12-(((6S,8aS)-hexahydro-1H-pyrrolo[2,1-c][1,4]oxazin-6-yl)methoxy)-5-methyl-5a,6,7,8,9,10-hexahydro-5H-4-oxa-3,10a,11,13,14-pentaaza-6,9-methanonaphtho[1,8-ab]heptalen-2-yl)-6-methyl-5-(trifluoromethyl)pyridin-2-amine] | 62.8 nM | 0.48 nM
4 | Cc1c(F)c(N)cc(-c2nc3c4c(nc(OC[C@@H]5CC[C@H]6COCCN65)nc4c2F)N2C[C@H]4CC[C@H](N4)[C@H]2[C@H](C)O3)c1CC(F)(F)F [Compound 113, 2-fluoro-5-((5S,5aS,6S,9R)-1-fluoro-12-(((6S,8aS)-hexahydro-1H-pyrrolo[2,1-c][1,4]oxazin-6-yl)methoxy)-5-methyl-5a,6,7,8,9,10-hexahydro-5H-4-oxa-3,10a,11,13,14-pentaaza-6,9-methanonaphtho[1,8-ab]heptalen-2-yl)-3-methyl-4-(2,2,2-trifluoroethyl)aniline] | 65.6 nM | 0.31 nM
5 | C[C@@H]1Oc2nc(-c3cccc4ccc(N)nc34)c(F)c3nc(OC[C@@]45CCCN4C[C@H](F)C5)nc(c23)N2C[C@H]3CC[C@H](N3)[C@@H]12 [Compound 114, 8-((5S,5aS,6S,9R)-1-Fluoro-12-(((2R,7aS)-2-fluorotetrahydro-1H-pyrrolizin-7a(5H)-yl)methoxy)-5-methyl-5a,6,7,8,9,10-hexahydro-5H-4-oxa-3,10a,11,13,14-pentaaza-6,9-methanonaphtho[1,8-ab]heptalen-2-yl)quinolin-2-amine] | 36700 nM | 135 nM
6 | C[C@@H]1Oc2nc(-c3cc(N)cc(C(F)(F)F)c3C(F)(F)F)c(F)c3nc(OC[C@@]45CCCN4C[C@H](F)C5)nc(c23)N2C[C@H]3CC[C@H](N3)[C@@H]12 [Compound 115, 3-((5S,5aS,6S,9R)-1-fluoro-12-(((2R,7aS)-2-fluorotetrahydro-1H-pyrrolizin-7a(5H)-yl)methoxy)-5-methyl-5a,6,7,8,9,10-hexahydro-5H-4-oxa-3,10a,11,13,14-pentaaza-6,9-methanonaphtho[1,8-ab]heptalen-2-yl)-4,5-bis(trifluoromethyl)aniline] | 34.1 nM | 0.39 nM
7 | C[C@@H]1Oc2nc(-c3cccc4sc(N)nc34)c(F)c3nc(OC[C@@]45CCCN4C[C@H](F)C5)nc(c23)N2C[C@H]3CC[C@H](N3)[C@@H]12 [Compound 116, 4-((5S,5aS,6S,9R)-1-fluoro-12-(((2R,7aS)-2-fluorotetrahydro-1H-pyrrolizin-7a(5H)-yl)methoxy)-5-methyl-5a,6,7,8,9,10-hexahydro-5H-4-oxa-3,10a,11,13,14-pentaaza-6,9-methanonaphtho[1,8-ab]heptalen-2-yl)benzo[d]thiazol-2-amine] | 213 nM | 2.41 nM
8 | C[C@@H]1Oc2nc(-c3cc(N)ccc3C(C)(C)C)c(F)c3nc(OC[C@@]45CCCN4C[C@H](F)C5)nc(c23)N2C[C@H]3CC[C@H](N3)[C@@H]12 [Compound 117, 4-(tert-butyl)-3-((5S,5aS,6S,9R)-1-fluoro-12-(((2R,7aS)-2-fluorotetrahydro-1H-pyrrolizin-7a(5H)-yl)methoxy)-5-methyl-5a,6,7,8,9,10-hexahydro-5H-4-oxa-3,10a,11,13,14-pentaaza-6,9-methanonaphtho[1,8-ab]heptalen-2-yl)aniline] | 638 nM | 4.84 nM
9 | Cc1c(F)c(N)cc(-c2nc3c4c(nc(OCC5(CN6CCOCC6)CC5)nc4c2F)N2C[C@H]4CC[C@H](N4)[C@H]2[C@H](C)O3)c1C(F)(F)F [Compound 118, 2-Fluoro-5-((5S,5aS,6S,9R)-1-fluoro-5-methyl-12-((1-(morpholinomethyl)cyclopropyl)methoxy)-5a,6,7,8,9,10-hexahydro-5H-4-oxa-3,10a,11,13,14-pentaaza-6,9-methanonaphtho[1,8-ab]heptalen-2-yl)-3-methyl-4-(trifluoromethyl)aniline] | 1.76 nM | 0.09 nM
10 | Cc1c(F)c(N)cc(-c2nc3c4c(nc(OC[C@@H]5CCC6C=C(F)CCN65)nc4c2F)N2C[C@H]4CC[C@H](N4)[C@H]2[C@H](C)O3)c1C(F)(F)F (stereo partly drawn) [Compound 120, 2-fluoro-5-((5S,5aS,6S,9R)-1-fluoro-12-(((3S)-7-fluoro-1,2,3,5,6,8a-hexahydroindolizin-3-yl)methoxy)-5-methyl-5a,6,7,8,9,10-hexahydro-5H-4-oxa-3,10a,11,13,14-pentaaza-6,9-methanonaphtho[1,8-ab]heptalen-2-yl)-3-methyl-4-(trifluoromethyl)aniline] | 44.5 nM | 0.24 nM
11 | Cc1c(F)c(N)cc(-c2nc3c4c(nc(OC[C@@]56CCC(C)N5C[C@H](F)C6)nc4c2F)N2C[C@H]4CC[C@H](N4)[C@H]2[C@H](C)O3)c1C(F)(F)F (stereo partly drawn) [Compound 122, 2-fluoro-5-((5S,5aS,6S,9R)-1-fluoro-12-(((2R,7aS)-2-fluoro-5-methyltetrahydro-1H-pyrrolizin-7a(5H)-yl)methoxy)-5-methyl-5a,6,7,8,9,10-hexahydro-5H-4-oxa-3,10a,11,13,14-pentaaza-6,9-methanonaphtho[1,8-ab]heptalen-2-yl)-3-methyl-4-(trifluoromethyl)aniline] | 3.72 nM | 0.11 nM
12 | Cc1c(F)c(N)cc(-c2nc3c4c(nc(OCC5CN(CC(F)F)C5)nc4c2F)N2C[C@H]4CC[C@H](N4)[C@H]2[C@H](C)O3)c1C(F)(F)F [Compound 128, 5-((5S,5aS,6S,9R)-12-((1-(2,2-Difluoroethyl)azetidin-3-yl)methoxy)-1-fluoro-5-methyl-5a,6,7,8,9,10-hexahydro-5H-4-oxa-3,10a,11,13,14-pentaaza-6,9-methanonaphtho[1,8-ab]heptalen-2-yl)-2-fluoro-3-methyl-4-(trifluoromethyl)aniline] | 156 nM | 0.48 nM
13 | Cc1c(F)c(N)cc(-c2nc3c4c(nc(OCC5(CN6CCOC[C@H]6C)CC5)nc4c2F)N2C[C@H]4CC[C@H](N4)[C@H]2[C@H](C)O3)c1C(F)(F)F [Compound 129, 2-Fluoro-5-((5S,5aS,6S,9R)-1-fluoro-5-methyl-12-((1-(((R)-3-methylmorpholino)methyl)cyclopropyl)methoxy)-5a,6,7,8,9,10-hexahydro-5H-4-oxa-3,10a,11,13,14-pentaaza-6,9-methanonaphtho[1,8-ab]heptalen-2-yl)-3-methyl-4-(trifluoromethyl)aniline] | 3.87 nM | 0.18 nM
14 | Cc1c(F)c(N)cc(-c2nc3c4c(nc(OCC56COC(CN5C)C6)nc4c2F)N2C[C@H]4CC[C@H](N4)[C@H]2[C@H](C)O3)c1C(F)(F)F [Compound 132, 2-Fluoro-5-((5S,5aS,6S,9R)-1-fluoro-5-methyl-12-((5-methyl-2-oxa-5-azabicyclo[2.2.1]heptan-4-yl)methoxy)-5a,6,7,8,9,10-hexahydro-5H-4-oxa-3,10a,11,13,14-pentaaza-6,9-methanonaphtho[1,8-ab]heptalen-2-yl)-3-methyl-4-(trifluoromethyl)aniline] | 291 nM | 1.47 nM
15 | Cc1c(F)c(N)cc(-c2nc3c4c(nc(OC[C@@H]5CO[C@H]6CC[N@]5C6)nc4c2F)N2C[C@H]4CC[C@H](N4)[C@H]2[C@H](C)O3)c1C(F)(F)F [Compound 135, 5-((5S,5aS,6S,9R)-12-(((1R,2S,5S)-4-Oxa-1-azabicyclo[3.2.1]octan-2-yl)methoxy)-1-fluoro-5-methyl-5a,6,7,8,9,10-hexahydro-5H-4-oxa-3,10a,11,13,14-pentaaza-6,9-methanonaphtho[1,8-ab]heptalen-2-yl)-2-fluoro-3-methyl-4-(trifluoromethyl)aniline] | 143 nM | 0.71 nM
16 | Cc1c(F)c(N)cc(-c2nc3c4c(nc(OC[C@@H]5[C@@H]6CCN5CCO6)nc4c2F)N2C[C@H]4CC[C@H](N4)[C@H]2[C@H](C)O3)c1C(F)(F)F [Compound 136, 5-((5S,5aS,6S,9R)-12-(((5S,8R)-4-Oxa-1-azabicyclo[3.2.1]octan-8-yl)methoxy)-1-fluoro-5-methyl-5a,6,7,8,9,10-hexahydro-5H-4-oxa-3,10a,11,13,14-pentaaza-6,9-methanonaphtho[1,8-ab]heptalen-2-yl)-2-fluoro-3-methyl-4-(trifluoromethyl)aniline] | 90.8 nM | 0.38 nM
